According to ChEMBL document CHEMBL4665624, “Synthesis of 5-(4-(1H-phenanthro[9,10-d]imidazol-2-yl)benzylidene)thiazolidine-2,4-dione as promising DNA and serum albumin-binding agents and evaluation of antitumor activity” (Eur J Med Chem, 2019):
Activity calls are given as the source filed them. No cut-off for these calls is given here.

What was measured:
CCRF-CEM = experiment: Antitumor activity against human CCRF-CEM cells assessed as cell growth inhibition at 10 uM incubated for 48 hrs by sulforhodamine B assay; format: functional; settings: read-out: GI
HL-60(TB) = experiment: Antitumor activity against human HL-60(TB) cells assessed as cell growth inhibition at 10 uM incubated for 48 hrs by sulforhodamine B assay; format: functional; settings: read-out: GI
K562 = experiment: Antitumor activity against human K562 cells assessed as cell growth inhibition at 10 uM incubated for 48 hrs by sulforhodamine B assay; format: functional; settings: read-out: GI
MOLT-4 = experiment: Antitumor activity against human MOLT4 cells assessed as cell growth inhibition at 10 uM incubated for 48 hrs by sulforhodamine B assay; format: functional; settings: read-out: GI
RPMI-8226 = experiment: Antitumor activity against human RPMI8226 cells assessed as cell growth inhibition at 10 uM incubated for 48 hrs by sulforhodamine B assay; format: functional; settings: read-out: GI
SR = experiment: Antitumor activity against human SR cells assessed as cell growth inhibition at 10 uM incubated for 48 hrs by sulforhodamine B assay; format: functional; settings: read-out: GI
HOP-92 = experiment: Antitumor activity against human HOP92 cells assessed as cell growth inhibition at 10 uM incubated for 48 hrs by sulforhodamine B assay; format: functional; settings: read-out: GI
NCI-H226 = experiment: Antitumor activity against human NCI-H226 assessed as cell growth inhibition at 10 uM incubated for 48 hrs by sulforhodamine B assay; format: functional; settings: read-out: GI
NCI-H23 = experiment: Antitumor activity against human NCI-H23 cells assessed as cell growth inhibition at 10 uM incubated for 48 hrs by sulforhodamine B assay; format: functional; settings: read-out: GI
NCI-H522 = experiment: Antitumor activity against human NCI-H522 cells assessed as cell growth inhibition at 10 uM incubated for 48 hrs by sulforhodamine B assay; format: functional; settings: read-out: GI
HCT-116 = experiment: Antitumor activity against human HCT116 cells assessed as cell growth inhibition at 10 uM incubated for 48 hrs by sulforhodamine B assay; format: functional; settings: read-out: GI
HCT-15 = experiment: Antitumor activity against human HCT15 cells assessed as cell growth inhibition at 10 uM incubated for 48 hrs by sulforhodamine B assay; format: functional; settings: read-out: GI
KM12 = experiment: Antitumor activity against human KM12 cells assessed as cell growth inhibition at 10 uM incubated for 48 hrs by sulforhodamine B assay; format: functional; settings: read-out: GI
SF-268 = experiment: Antitumor activity against human SF268 cells assessed as cell growth inhibition at 10 uM incubated for 48 hrs by sulforhodamine B assay; format: functional; settings: read-out: GI
SF-295 = experiment: Antitumor activity against human SF295 cells assessed as cell growth inhibition at 10 uM incubated for 48 hrs by sulforhodamine B assay; format: functional; settings: read-out: GI
SNB-75 = experiment: Antitumor activity against human SNB-75 cells assessed as cell growth inhibition at 10 uM incubated for 48 hrs by sulforhodamine B assay; format: functional; settings: read-out: GI
U-251 = experiment: Antitumor activity against human U251 cells assessed as cell growth inhibition at 10 uM incubated for 48 hrs by sulforhodamine B assay; format: functional; settings: read-out: GI
LOX IMVI = experiment: Antitumor activity against human LOX IMVI cells assessed as cell growth inhibition at 10 uM incubated for 48 hrs by sulforhodamine B assay; format: functional; settings: read-out: GI
Malme-3M = experiment: Antitumor activity against human MALME-3M cells assessed as cell growth inhibition at 10 uM incubated for 48 hrs by sulforhodamine B assay; format: functional; settings: read-out: GI
SK-MEL-28 = experiment: Antitumor activity against human SK-MEL-28 cells assessed as cell growth inhibition at 10 uM incubated for 48 hrs by sulforhodamine B assay; format: functional; settings: read-out: GI
UACC-62 = experiment: Antitumor activity against human UACC-62 cells assessed as cell growth inhibition at 10 uM incubated for 48 hrs by sulforhodamine B assay; format: functional; settings: read-out: GI
IGROV-1 = experiment: Antitumor activity against human IGROV1 cells assessed as cell growth inhibition at 10 uM incubated for 48 hrs by sulforhodamine B assay; format: functional; settings: read-out: GI
OVCAR-3 = experiment: Antitumor activity against human OVCAR-3 cells assessed as cell growth inhibition at 10 uM incubated for 48 hrs by sulforhodamine B assay; format: functional; settings: read-out: GI
OVCAR-4 = experiment: Antitumor activity against human OVCAR-4 cells assessed as cell growth inhibition at 10 uM incubated for 48 hrs by sulforhodamine B assay; format: functional; settings: read-out: GI
NCI/ADR-RES = experiment: Antitumor activity against human NCI/ADR-RES cells assessed as cell growth inhibition at 10 uM incubated for 48 hrs by sulforhodamine B assay; format: functional; settings: read-out: GI
SK-OV-3 = experiment: Antitumor activity against human SK-OV-3 cells assessed as cell growth inhibition at 10 uM incubated for 48 hrs by sulforhodamine B assay; format: functional; settings: read-out: GI
ACHN = experiment: Antitumor activity against human ACHN cells assessed as cell growth inhibition at 10 uM incubated for 48 hrs by sulforhodamine B assay; format: functional; settings: read-out: GI
SN12C = experiment: Antitumor activity against human SN12C cells assessed as cell growth inhibition at 10 uM incubated for 48 hrs by sulforhodamine B assay; format: functional; settings: read-out: GI
UO-31 = experiment: Antitumor activity against human UO-31 cells assessed as cell growth inhibition at 10 uM incubated for 48 hrs by sulforhodamine B assay; format: functional; settings: read-out: GI
PC-3 = experiment: Antitumor activity against human PC-3 cells assessed as cell growth inhibition at 10 uM incubated for 48 hrs by sulforhodamine B assay; format: functional; settings: read-out: GI
MCF7 = experiment: Antitumor activity against human MCF7 cells assessed as cell growth inhibition at 10 uM incubated for 48 hrs by sulforhodamine B assay; format: functional; settings: read-out: GI
MDA-MB-231 = experiment: Antitumor activity against human MDA-MB-231/ATCC cells assessed as cell growth inhibition at 10 uM incubated for 48 hrs by sulforhodamine B assay; format: functional; settings: read-out: GI
BT-549 = experiment: Antitumor activity against human BT-549 cells assessed as cell growth inhibition at 10 uM incubated for 48 hrs by sulforhodamine B assay; format: functional; settings: read-out: GI
Hs-578T = experiment: Cytotoxicity against human HS 578T cells assessed as cell death at 10 uM incubated for 48 hrs by sulforhodamine B assay; format: functional, cell-based
A498 = experiment: Cytotoxicity against human A498 cells assessed as cell death at 10 uM incubated for 48 hrs by sulforhodamine B assay; format: functional, cell-based
HCC 2998 = experiment: Cytotoxicity against human HCC2998 cells assessed as cell death at 10 uM incubated for 48 hrs by sulforhodamine B assay; format: functional, cell-based
SW-620 = experiment: Antitumor activity against human SW620 cells assessed as cell growth inhibition at 10 uM incubated for 48 hrs by sulforhodamine B assay; settings: SW-620, 48 h, read-out: GI

O=c1[nH]cc(F)c(=O)[nH]1 [FLUOROURACIL]
inhibition of growth at 10 µM (CCRF-CEM): 57.1%
inhibition of growth at 10 µM (HL-60(TB)): 47.9%
inhibition of growth at 10 µM (K562): 42.3%
inhibition of growth at 10 µM (MOLT-4): 43.1%
inhibition of growth at 10 µM (RPMI-8226): 41.4%
inhibition of growth at 10 µM (SR): 24.8%
inhibition of growth at 10 µM (HOP-92): 50.6%
inhibition of growth at 10 µM (NCI-H226): 69.5%
inhibition of growth at 10 µM (NCI-H23): 39%
inhibition of growth at 10 µM (NCI-H522): 58%
inhibition of growth at 10 µM (HCT-116): 17.8%
inhibition of growth at 10 µM (HCT-15): 26.5%
inhibition of growth at 10 µM (KM12): 40.7%
inhibition of growth at 10 µM (SF-268): 59%
inhibition of growth at 10 µM (SF-295): 69%
inhibition of growth at 10 µM (SNB-75): 65.9%
inhibition of growth at 10 µM (U-251): 50.3%
inhibition of growth at 10 µM (LOX IMVI): 30.4%
inhibition of growth at 10 µM (Malme-3M): 58.2%
inhibition of growth at 10 µM (SK-MEL-28): 19.5%
inhibition of growth at 10 µM (UACC-62): 39.7%
inhibition of growth at 10 µM (IGROV-1): 51.2%
inhibition of growth at 10 µM (OVCAR-3): 47.4%
inhibition of growth at 10 µM (OVCAR-4): 59.4%
inhibition of growth at 10 µM (NCI/ADR-RES): 47.6%
inhibition of growth at 10 µM (SK-OV-3): 77.5%
inhibition of growth at 10 µM (ACHN): 39.3%
inhibition of growth at 10 µM (SN12C): 54%
inhibition of growth at 10 µM (UO-31): 41.3%
inhibition of growth at 10 µM (PC-3): 58.2%
inhibition of growth at 10 µM (MCF7): 11.5%
inhibition of growth at 10 µM (MDA-MB-231): 78.1%
inhibition of growth at 10 µM (BT-549): 37.8%
Activity (Hs-578T): Active
Activity (A498): Active
Activity (HCC 2998): Active
inhibition of growth at 10 µM (SW-620): < 10%
